According to patent publication US12510533B2, “Methods for treating multiple myeloma and the use of companion biomarkers for 4-(4-(4-(((2-(2,6-dioxopiperidin-3-yl)-1-oxoisoindolin-4-yl)oxy)methyl)benzyl)piperazin-1-yl)-3-fluorobenzonitrile” (Celgene Corporation, priority 2018, dated 2025):
Where two headings read alike, the source gives them in different places.

What was measured:
[1] = target: T1, Aiolos (Homo sapiens, UniProt Q96SW2+Q9UKT9); test: Aiolos degradation, ePL luminescence assay in DF15 cells expressing ePL-tagged Aiolos; assay type: cell-based; conditions: for DC50: read-out: Degradation of Aiolos IC50, DF15 cells
T1 construct: expressed in transfected cells; host or cells: DF15 multiple myeloma cells
Method: FIG. 1 illustrates that Compound 2 and Compound 3 degraded Aiolos protein in a time and concentration dependent manner. DF15 cells expressing Enhanced ProLabel (ePL)-tagged Aiolos were incubated with Compound 2 (triangle) or Compound 3 (square) for 45 minutes, 90 minutes, or 3 hours at the indicated concentrations. Cell extracts were then generated and the amount of Aiolos-ePL protein was determined by ePL luminescence assay.
The relative effectiveness of Compound 2 and Compound 3 to promote the destruction of Aiolos protein by the CRL4^CRBN E3 ubiquitin ligase was investigated in DF15 myeloma cells at different time points (45 minutes, 90 minutes, and 3 hours). DF15 cells expressing Enhanced ProLabel (ePL)-tagged Aiolos were incubated with Compound 2 or Compound 3 for 45 minutes, 90 minutes, or 3 hours. Cell extracts were then generated and the amount of Aiolos ePL protein was determined by ePL luminescence assay. Values shown in Table 1 correspond to data presented in FIG. 1 for Aiolos content vs. concentration.

[2] = test system: OPM2 cells; test: cells; assay type: cell-based, human; conditions: Homo sapiens, read-out: Inhibition of Proliferation of OPM2 Cells IC50
Method: The effect of the stabilizing mutations on cell proliferation was also measured.

T1 sequence (Q9UKT9 whole entry): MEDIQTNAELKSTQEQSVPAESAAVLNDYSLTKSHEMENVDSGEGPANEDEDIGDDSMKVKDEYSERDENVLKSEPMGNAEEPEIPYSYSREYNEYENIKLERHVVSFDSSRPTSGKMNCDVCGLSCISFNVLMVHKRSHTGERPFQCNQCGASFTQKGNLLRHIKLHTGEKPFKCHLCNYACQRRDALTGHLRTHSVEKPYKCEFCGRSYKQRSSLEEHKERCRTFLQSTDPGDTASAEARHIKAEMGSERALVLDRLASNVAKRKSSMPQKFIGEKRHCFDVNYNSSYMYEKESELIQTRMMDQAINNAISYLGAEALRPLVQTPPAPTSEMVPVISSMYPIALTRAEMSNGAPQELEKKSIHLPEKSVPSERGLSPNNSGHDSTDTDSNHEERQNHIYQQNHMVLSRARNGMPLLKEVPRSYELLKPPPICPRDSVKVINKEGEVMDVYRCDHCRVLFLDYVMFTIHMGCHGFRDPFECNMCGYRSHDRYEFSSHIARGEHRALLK
T1 sequence (Q96SW2 whole entry): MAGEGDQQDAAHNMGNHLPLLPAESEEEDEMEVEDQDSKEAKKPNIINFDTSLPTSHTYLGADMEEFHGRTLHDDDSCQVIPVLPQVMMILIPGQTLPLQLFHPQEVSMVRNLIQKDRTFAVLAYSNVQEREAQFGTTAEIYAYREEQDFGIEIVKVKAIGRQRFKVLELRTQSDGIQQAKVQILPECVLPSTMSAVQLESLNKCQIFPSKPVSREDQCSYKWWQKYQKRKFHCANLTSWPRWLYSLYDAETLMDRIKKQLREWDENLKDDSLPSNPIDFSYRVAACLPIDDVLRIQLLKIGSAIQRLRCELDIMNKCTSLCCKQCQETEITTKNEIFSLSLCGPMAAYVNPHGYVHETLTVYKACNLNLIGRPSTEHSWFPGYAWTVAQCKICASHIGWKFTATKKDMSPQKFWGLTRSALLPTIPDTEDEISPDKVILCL
T1 sequence (Q16531 2-1140, further chain): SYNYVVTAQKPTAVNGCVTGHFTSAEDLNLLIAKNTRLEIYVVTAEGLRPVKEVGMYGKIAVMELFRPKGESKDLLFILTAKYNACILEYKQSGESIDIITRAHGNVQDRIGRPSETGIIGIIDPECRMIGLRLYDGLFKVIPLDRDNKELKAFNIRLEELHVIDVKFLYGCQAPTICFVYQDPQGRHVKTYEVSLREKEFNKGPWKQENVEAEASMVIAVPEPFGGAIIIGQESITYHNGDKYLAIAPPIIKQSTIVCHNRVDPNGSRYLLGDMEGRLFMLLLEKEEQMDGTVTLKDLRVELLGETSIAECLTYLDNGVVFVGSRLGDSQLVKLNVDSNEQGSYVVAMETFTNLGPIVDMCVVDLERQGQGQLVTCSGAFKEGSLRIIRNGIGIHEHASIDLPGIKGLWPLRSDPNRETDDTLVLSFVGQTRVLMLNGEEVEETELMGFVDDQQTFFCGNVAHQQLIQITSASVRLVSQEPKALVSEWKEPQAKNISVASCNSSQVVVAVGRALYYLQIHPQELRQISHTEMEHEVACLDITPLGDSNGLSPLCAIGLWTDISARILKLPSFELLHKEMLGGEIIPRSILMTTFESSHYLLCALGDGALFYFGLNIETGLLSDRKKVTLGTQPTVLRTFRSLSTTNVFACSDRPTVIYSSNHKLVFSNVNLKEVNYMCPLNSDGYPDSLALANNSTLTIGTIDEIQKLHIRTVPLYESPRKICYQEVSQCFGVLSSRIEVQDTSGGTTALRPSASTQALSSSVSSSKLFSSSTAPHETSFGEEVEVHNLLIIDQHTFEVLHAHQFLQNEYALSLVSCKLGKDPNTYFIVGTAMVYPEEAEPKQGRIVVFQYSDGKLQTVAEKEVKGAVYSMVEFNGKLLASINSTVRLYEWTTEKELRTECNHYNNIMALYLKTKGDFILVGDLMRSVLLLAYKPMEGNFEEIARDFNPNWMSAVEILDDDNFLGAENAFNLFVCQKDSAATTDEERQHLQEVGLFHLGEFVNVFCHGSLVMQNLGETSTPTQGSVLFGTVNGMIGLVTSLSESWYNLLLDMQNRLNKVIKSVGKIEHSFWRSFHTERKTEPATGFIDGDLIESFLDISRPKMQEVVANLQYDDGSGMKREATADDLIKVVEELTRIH

Compound | manner of Aiolos degradation ([1]; 45 minutes, 90 minutes, 3 hours) | inhibition at 0.001 µM ([1]; DF15, read-out: inhibition at 0.001 μM) | DC50 ([1]; 45 minutes incubation) | DC50 ([1]; 90 minutes incubation) | DC50 ([1]; 3 hours incubation) | IC50 ([2]; OPM-2, Parental) | IC50 ([2]; OPM-2, overexpressing Aiolos Q147H) | IC50 ([2]; OPM-2, overexpressing Aiolos) | IC50 ([2]; OPM-2, overexpressing Ikaros-G151A) | IC50 ([2]; OPM-2, overexpressing Ikaros-Q146H) | IC50 ([2]; OPM-2, overexpressing Ikaros) | IC50 ([2]; OPM-2, overexpressing ZFP91-Q400H)
N#Cc1ccc(N2CCN(Cc3ccc(COc4cccc5c4CN([C@@H]4CCC(=O)NC4=O)C5=O)cc3)CC2)c(F)c1 [Compound 3, (R)-4-(4-(4-(((2-(2,6-dioxopiperidin-3-yl)-1-oxoisoindolin-4-yl)oxy)methyl)benzyl)piperazin-1-yl)-3-fluorobenzonitrile] | time-dependent and concentration-dependent | 13% | > 100 nM | 5.9 nM | 0.45 nM | – | – | – | – | – | – | –
Nc1cccc2c1C(=O)N(C1CCC(=O)NC1=O)C2=O (stereo not drawn) [Pomalidomide, pomalidomide, reference compound] | – | – | – | – | – | 64 nM | 56 nM | 89 nM | > 100 nM | > 100 nM | 91 nM | 73 nM
